Values after ≈ are worked out from the molar mass of the structure shown. Read-outs that look alike come from different tables or passages of the source.
How the values were obtained:
Assay type in all cases: cell-based
[1] = test system: P388 (Lignée lymphoblastoïde murine); assay: MTT test, anti-tumour activity on P388 cell line; settings: for IC50: Mus musculus
Method: (§1) Différents composés de l'invention ont été testés pour leurs activités anti-tumorales sur différentes lignées tumorales murines ou humaines et comparés à des produits anti-tumoraux connus.
(§2) Les lignées cellulaires testées sont la lignée lymphoblastoïde murine P388, la lignée de mélanome murin B16, la lignée de kératinocytes humains HaCaT, la lignée de mélanome humain HBL.
(§3) L'action anti-tumorale des composés de l'invention a été testée sur ces différentes lignées après différentes durées d'incubation (30 minutes, 2 heures, 3 heures, 48 heures ou 72 heures).
(§4) En outre, différents types d'irradiation, différentes durées d'irradiation (30 minutes ou 60 minutes) ainsi que différentes durées d'incubation ont été testés.
(§5) Les différents résultats sont présentés dans le tableau 1 annexé.

[2] = test system: B16 (Lignée de mélanome murin); assay: MTT test, anti-tumour activity on B16 cell line; settings: for IC50: Mus musculus, B16, light or radiation study
Method: as §1, §2, §3, §4, §5

[3] = test system: HaCaT (Lignée de kératinocytes humains); assay: MTT test, anti-tumour activity on HaCaT cell line; settings: Homo sapiens, rest 24 h, incubation 3 h, 4°C, incubation before MTT test 45 h, read-out: Dose efficace DL50
Method: as §1, §2, §3, §4, §5

[4] = test system: HBL (Lignée de mélanome humain); assay: MTT test, anti-tumour activity on HBL cell line; settings: Homo sapiens, rest 24 h, incubation 3 h, 4°C, incubation before MTT test 45 h, read-out: Dose efficace DL50
Method: as §1, §2, §3, §4, §5

[5] = P388, rest after culture 24 h, incubation 2 h, no irradiation, incubation before MTT test 48 h
[6] = P388, rest after culture 24 h, incubation 48 h, no irradiation, incubation before MTT test 0 h
[7] = B16, rest after culture 24 h, incubation 2 h, no irradiation, incubation before MTT test 72 h
[8] = B16, rest after culture 24 h, incubation 72 h, no irradiation, incubation before MTT test 0 h
[9] = P388, light or radiation study, read-out: Dose efficace DL50, P388, rest after culture 24 h, incubation 2 h, no irradiation, incubation before MTT test 48 h
[10] = P388, light or radiation study, read-out: Dose efficace DL50, P388, rest after culture 24 h, incubation 48 h, no irradiation, incubation before MTT test 0 h
[11] = read-out: Dose efficace DL50, B16, rest after culture 24 h, incubation 2 h, no irradiation, incubation before MTT test 72 h
[12] = read-out: Dose efficace DL50, B16, rest after culture 24 h, incubation 72 h, no irradiation, incubation before MTT test 0 h
[13] = light or radiation study, P388, rest after culture 24 h, incubation 2 h, no irradiation, incubation before MTT test 48 h, read-out: Dose efficace DL50
[14] = B16, rest after culture 24 h, incubation 2 h, no irradiation, incubation before MTT test 72 h, read-out: Dose efficace DL50
[15] = B16, rest after culture 24 h, incubation 72 h, no irradiation, incubation before MTT test 0 h, read-out: Dose efficace DL50
[16] = light or radiation study, UVA Cléo + filtre UVB + polyéthylène, irradiation 60 min

N[C@@H](Cc1ccc(N(CCCl)CCCl)cc1)C(=O)O [Melphalan, reference compound]
Dose efficace DL50 [1]: 7 µg/mL | IC50 ([1]; P388, light or radiation study, read-out: Dose efficace DL50): 9 µg/mL (≈ 29.5 µM) | Dose efficace DL50 [2]: 10 µg/mL | IC50 ([2]; read-out: Dose efficace DL50): 12 µg/mL (≈ 39.3 µM)

CNC1=Nc2ccccc2C(c2ccccc2)=[N+]([O-])C1 [deschlordiazépoxide, deschlorodiazépoxide]
Dose efficace DL50 [1, 5]: > 100 µg/mL | Dose efficace DL50 [1, 6]: > 100 µg/mL | Dose efficace DL50 [2, 7]: > 100 µg/mL | Dose efficace DL50 [2, 8]: > 100 µg/mL

oxaziridine de deschlorodiazépoxide [oxaziridine du deschlordiazépoxide]
Dose efficace DL50 [1, 5]: 22 µg/mL | Dose efficace DL50 [1, 6]: 12 µg/mL | Dose efficace DL50 [2, 7]: 14 µg/ml μg/ml | Dose efficace DL50 [2, 8]: 8 µg/ml μg/ml

CNC1=Nc2ccc(Cl)cc2C2(c3ccccc3)ON2C1 (centres unmarked) [oxaziridine du chlordiazépoxide, oxaziridine de chlorodiazépoxide]
IC50 [1, 9]: 41 µg/mL (≈ 137 µM) | IC50 [1, 10]: 34 µg/mL (≈ 113 µM) | IC50 [2, 11]: 32 µg/mL (≈ 107 µM) | IC50 [2, 12]: 15 µg/mL (≈ 50 µM)

O=C1CN2OC2(c2ccccc2)c2cc(Cl)ccc2N1 (centres unmarked) [oxaziridine du démoxépan, oxaziridine de demoxepan]
IC50 [1, 9]: 62 µg/mL (≈ 216 µM) | IC50 [1, 10]: 22 µg/mL (≈ 76.7 µM) | IC50 [2, 11]: 22 µg/mL (≈ 76.7 µM) | IC50 [2, 12]: 11 µg/mL (≈ 38.4 µM)

O=C1C[N+]([O-])=C(c2ccccc2)c2cc(Cl)ccc2N1 [démoxépan, demoxepan]
IC50 [1, 13]: > 100 µg/mL | Dose efficace DL50 [1, 6]: > 100 µg/mL | IC50 [2, 14]: > 100 µg/mL | IC50 [2, 15]: > 100 µg/mL

CNC1=Nc2ccc(Cl)cc2C(c2ccccc2)=[N+]([O-])C1 [chlordiazépoxide, chlorodiazépoxide, reference compound]
IC50 [1, 13]: > 100 µg/mL | Dose efficace DL50 [1, 6]: > 100 µg/mL | IC50 ([2]; B16, rest 24 h, incubation 30 min, lampe de Wood, RT, irradiation 30 min, no time before washing (---), incubation before MTT test 72 h, read-out: Dose efficace DL50): 7 µg/mL (≈ 23.4 µM) | IC50 ([2]; B16, rest 24 h, incubation 30 min, lampe de Wood, RT, irradiation 30 min, time before washing 1 h, incubation before MTT test 72 h, read-out: Dose efficace DL50): 9 µg/mL (≈ 30 µM) | IC50 [2, 14]: > 100 µg/mL | IC50 [2, 15]: > 100 µg/mL | IC50 ([3]; light or radiation study, UVA Cléo + filtre UVB + polyéthylène, irradiation 30 min): 36 µg/mL | IC50 [3, 16]: 24 µg/mL | IC50 ([3]; no light source (---), 30 min): > 100 µg/mL | IC50 [4, 16]: 12 µg/mL | IC50 ([4]; no light source (---), 30 min): > 100 µg/mL

Reference: EP1369117A1, “Use of derivatives and precursors of oxaziridine in the treatment of cancerous tumours” (priority 2002, dated 2003)
